Data from ChEMBL document CHEMBL3108687, “Isolation and structures of pipecolidepsins A and B, cytotoxic cyclic depsipeptides from the Madagascan sponge Homophymia lamellosa” (2014).

Key:
Type in all cases: functional
[1] = tested on: MDA-MB-231; experiment: Growth inhibition of human MDA-MB-231 cells after 72 hrs by sulforhodamine B assay; conditions: MDA-MB-231, 72 h
[2] = tested on: HT-29; experiment: Growth inhibition of human HT-29 cells after 72 hrs by sulforhodamine B assay; conditions: HT-29, 72 h
[3] = tested on: A549; experiment: Growth inhibition of human A549 cells after 72 hrs by sulforhodamine B assay; conditions: A549, 72 h

Structure (SMILES)	GI50 [1] [µM]	GI50 [2] [µM]	GI50 [3] [µM]
CCO[C@H](C(N)=O)[C@@H]1NC(=O)[C@H](CCC(N)=O)N(C)C(=O)[C@H](CC(C)C)NC(=O)[C@@H](CCCCN)NC(=O)[C@@H]([C@@H](C)O)NC(=O)[C@H](NC(=O)[C@@H](NC(=O)[C@H](O)[C@H](O)[C@H](CCC(N)=O)NC(=O)[C@H](NC(=O)[C@H](C)[C@H](O)[C@H](C)CC(C)C)[C@H](O)C(=O)O)[C@@H](C)[C@@H](C)C(N)=O)[C@@H]([C@H](C)C(C)C)OC(=O)[C@@H]2CCCCN2C(=O)[C@@H](CC(=O)O)NC1=O	0.02	0.01	0.04
CCO[C@H](C(N)=O)[C@@H]1NC(=O)[C@H](CCC(N)=O)N(C)C(=O)[C@H](CC(C)C)NC(=O)[C@@H](CCCCN)NC(=O)[C@@H]([C@@H](C)O)NC(=O)[C@H](NC(=O)[C@@H](NC(=O)[C@H](O)[C@H](O)[C@H](CCC(N)=O)NC(=O)[C@@H](CC(=O)O)NC(=O)[C@H](C)[C@H](O)[C@H](C)CC(C)C)[C@@H](C)[C@@H](C)C(N)=O)[C@@H]([C@H](C)C(C)C)OC(=O)[C@@H]2CCCCN2C(=O)[C@@H](CC(=O)O)NC1=O	0.7	1.12	0.6
